Test results as given in the supplement of paper PMC10307832.

Tests used:
Test in all cases: relative viability (nuclei count vs DMSO), 5 days (fraction); higher = more cells survive
[1] = compound: N#CC1(c2ccc(NC(=O)c3cccnc3NCc3ccncc3)cc2)CCCC1 [Apatinib] + COc1cc2c(Oc3ccc(NC(=O)C4(C(=O)Nc5ccc(F)cc5)CC4)cc3F)ccnc2cc1OCCCN1CCOCC1 [Foretinib] (partner 0.25 µM)
Summary of the method: (§1)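 The day after seeding in 1536-well plates, lung cancer cell lines were treated by pin tool with a single drug, or with a fixed anchor-drug dose together with five library-drug doses (not always all listed) in √10 steps. After 5 days, a combined fix-and-stain solution (final 0.05% Triton X-100, 1% formaldehyde, 1 ug/ml Hoechst) was added. Nuclei counted on 4× images gave relative viability as treated counts over vehicle counts, reported as the median of duplicate plates.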

[2] = compound: CN(C)C(=N)NC(=N)N [Metformin] + NC(=O)Nc1cc(-c2cccc(F)c2)sc1C(=O)N[C@H]1CCCNC1 [AZD7762] (partner 0.2 µM)
Summary of the method: as §1

[3] = compound: CN(C)C(=N)NC(=N)N [Metformin] + O=C(c1cc(Cc2n[nH]c(=O)c3ccccc23)ccc1F)N1CCN(C(=O)C2CC2)CC1 [Olaparib] (partner 8 µM)
Summary of the method: as §1

[4] = compound: N#CC1(c2ccc(NC(=O)c3cccnc3NCc3ccncc3)cc2)CCCC1 [Apatinib] + C[C@@H](Oc1cc(-c2cnn(C3CCNCC3)c2)cnc1N)c1c(Cl)ccc(F)c1Cl [Crizotinib] (partner 1 µM)
Summary of the method: as §1

Cell Line	relative viability ([1]; first compound 0.08 µM)	relative viability ([1]; first compound 0.253 µM)	relative viability ([1]; first compound 0.8 µM)	relative viability ([1]; first compound 8 µM)	relative viability ([2]; first compound 10 µM)	relative viability ([2]; first compound 31.62 µM)	relative viability ([2]; first compound 100 µM)	relative viability ([2]; first compound 316.23 µM)	relative viability ([2]; first compound 1000 µM)	relative viability ([3]; first compound 10 µM)	relative viability ([3]; first compound 31.62 µM)	relative viability ([3]; first compound 100 µM)	relative viability ([3]; first compound 316.23 µM)	relative viability ([3]; first compound 1000 µM)	relative viability ([4]; first compound 0.08 µM)	relative viability ([4]; first compound 0.253 µM)	relative viability ([4]; first compound 0.8 µM)	relative viability ([4]; first compound 2.53 µM)	relative viability ([4]; first compound 8 µM)	relative viability ([1]; first compound 2.53 µM)
NCI-H2347	0.657	0.912	0.856	0.766	0.662	0.892	0.856	0.771	0.862	0.585	0.506	0.376	0.465	0.512	0.795	0.751	0.772	0.578	0.645	–
LU99A	0.88	0.891	0.769	0.682	0.244	0.249	0.252	0.223	0.383	0.203	0.251	0.202	0.232	0.241	0.585	0.55	0.526	0.444	0.458	0.78
NCI-H3122	0.995	0.891	0.947	0.918	0.867	0.881	0.984	0.845	0.809	0.442	0.555	0.587	0.54	0.507	0.3	0.246	0.256	0.27	0.328	1.06
HARA	0.976	0.898	0.812	0.93	0.279	0.47	0.362	0.293	0.287	0.989	0.81	0.701	0.762	1.01	1.04	0.944	1.05	1.05	0.806	0.847
NCI-H727	1.02	0.676	0.937	0.912	0.655	0.624	0.565	–	0.525	0.641	0.599	0.582	–	0.577	0.756	0.693	0.719	0.679	0.583	0.835
201T	1.15	1.11	1.05	0.813	–	0.5	0.581	0.476	0.609	–	0.802	0.815	0.775	0.822	1.02	1.04	0.996	1.03	0.992	1.06
NCI-H838	1.14	1.18	0.997	0.986	0.972	0.947	0.989	0.99	0.94	0.686	0.691	0.639	0.596	0.696	0.892	0.936	0.77	0.76	0.775	0.946
NCI-H1734	0.932	0.833	0.839	0.676	0.61	0.542	0.541	0.579	0.53	0.473	0.636	0.584	0.501	0.616	0.67	0.812	0.76	0.596	0.579	0.732
ABC-1	–	1.27	0.961	1.02	1.24	1.03	0.986	1.1	0.909	–	0.817	1.08	0.218	0.36	–	1.42	1.11	0.932	0.614	1.1
